Results on two molecules are retold here after US10814010B2, “FOXC2 inhibitor and methods of use thereof” (The Board of Regents of The University of Texas System, priority 2018, dated 2020).

The EC50 is the concentration that produces a half-maximal response. Lower therefore signals higher potency in that assay.

One experiment has as its system PC3 cells. Nature of the experiment: MTT cell viability assay, PC3. It is filed as cell-based. The source says: Inhibition of EMT in CRPC could lead to a new form of therapeutics to aid once androgen-independence is achieved. However, in order for MC-1-F2 to be considered an effective chemotherapeutic agent, its EC50 in prostate cancer needed to be determined as well as how it compares to other chemotherapeutic agents on the market and whether it is able to inhibit chemoresistance or lower the sensitivity of CRPC to commercially available drugs. In order to determine the EC50 of MC-1-F2, an MTT assay on cell viability was performed in both DU145 and PC3. […] These doses are higher than those encountered with breast cancer cell lines. This is most likely due to the lower FOXC2 expression levels founds in prostate cell lines when compared to the breast cell lines.
(§1) Cell viability was assessed by MTT (3-(4,5-Dimethylthiazol-2-yl)-2,5-Diphenyltetrazolium Bromide) assay 5,000 cells were seeded on a 96-well cell culture plate and were incubated for at least 24 hours prior to drug treatment. The MTT reagent (Fisher Scientific) was added to the culture medium 3 hours prior to the end of compound incubation. The reaction took place in the 37° C. incubator with 5% CO2 for 3 hours. Cell culture medium was then removed from the wells. Cells with the insoluble purple formazan were lysed with DMSO for 10 mins at room temperature, 200 μL per well. Absorbance was read at 570 nm using a plate reader.
A general note: Tetrazolium assays rely on reduction of a dye to a coloured formazan, in cell work by metabolically active cells.

For the next experiment, the system named is DU145 cells. Nature of the experiment: MTT cell viability assay, DU145. It is filed as cell-based. The note with it: single agent. Here is the method: In order to determine the EC50 of MC-1-F2, an MTT assay on cell viability was performed in both DU145 and PC3.
as §1

As to `CNC(=O)c1ccc(N2C(=S)N(c3ccc(C#N)c(C(F)(F)F)c3)C(=O)C2(C)C)cc1F` [Enzalutamide, reference compound], the “effect on cell viability” value in the experiment on PC3 cells (single agent) and in the experiment on DU145 cells was “no effect” each time. In turn, `CC(=O)O[C@@]12CO[C@@H]1C[C@H](O)[C@@]1(C)C(=O)[C@H](O)C3=C(C)[C@@H](OC(=O)[C@H](O)[C@@H](NC(=O)OC(C)(C)C)c4ccccc4)C[C@@](O)([C@@H](OC(=O)c4ccccc4)[C@H]21)C3(C)C` [docetaxel] gave an EC50 in the experiment with PC3 cells (Homo sapiens, PC-3, single agent) of 7.6 nM.
